Assay [1] relates to SW620 human colorectal cancer cells. The experiment in a line: Potentiation of the growth inhibiting activity of MMS, MTT based cell viability assay. As to conditions: read-out: Compounds potentiate the growth inhibiting activity of MMS (IC50).
Description: The synergistic potentiation effect of PARP inhibitors on the growth inhibiting activity of DNA damaging anticancer drugs such as methyl methanesulphonate (MIMS) were measured with SW620 human colorectal cancer cells (Shanghai Cancer Institute) using a MTT based cell viability assay. SW620 cells were grown and maintained in RPMI1640 (Gibco) medium supplemented with 10% FBS (Hyclone). In the first day of experiment, 4000 cells were seeded to each well of a 96-well cell culture plate and incubated at 37° C. and 5% CO2 in a cell culture incubator overnight. In the next day, the cell culture medium was removed. […] The serial dilutions of the reference compounds and the compounds to be tested were made with a 1:3 and 1:10 fashion in DMSO. The 10-fold concentrated solutions of these compounds were made by mixing 10 μl of the serial dilutions in DMSO with 90 μl fresh medium. The final concentration of DMSO in the medium was 1%. The cells were incubated at 37° C. in 5% CO2 cell culture incubator for additional 5 days (120 hours). Afterwards, the 96-well cell culture plate was taken out and 20 μl of MTT solution was added to each well and incubated at 37° C. for 4 h. The medium was removed and 100 μl DMSO was added to each well. The 96-well cell culture plates were shaked adequately for 10 min and readed in a Varioskan Flash plate reader (Thermo Fisher Scientific) at 520 and 690 nm. The data were analyzed by Prism 5 software (GraphPad). The obtained 520 nm absorbance readings substracting corresponding 690 nm reading were analyzed and plotted against the Log scale of the compound concentrations.
Assay [2] has as its system BRCA-2 deficient CAPAN-1 human pancreatic cancer cells. Kind of assay: Cell growth inhibition of BRCA-2 deficient CAPAN-1 cells, MTT based cell viability assay. As to conditions: Homo sapiens, CAPAN-1, 240 h, read-out: Growth inhibition of CAPAN-1 cells by compounds (IC50).
Description: BRCA-2 deficient CAPAN-1 human pancreatic cancer cells were used to test the growth inhibiting activity of substituted 1-(arylmethyl)-5,6,7,8-tetrahydroquinazoline-2,4(1H,3H)-diones. Briefly, CAPAN-1 cells are grown and maintained in IMEM medium supplemented with 20% FBS. The assay takes 10 days to finish. On day 1, 6000 CAPAN-1 cells are seeded to each well of a 96-well plate. The cells are incubated at 37° C. in a CO2 cell culture incubator overnight. […] Ten-fold compound solutions were made by mixing 10 μl DMSO serial dilution solutions with 90 μl fresh growth medium. The cell culture medium was removed and 180 μl fresh media with FBS and 20 μl of compound solutions were added to each well. The final concentration of DMSO was 1%. Cells were then returned to the CO2 cell culture incubator and incubated at 37° C. for two days (day 3 and day 4). On day 5, the same procedure as what was done on day 2 was repeated. Cell culture medium was removed and fresh medium containing serial dilutions of compounds or reference compounds were added. Cells were returned to the CO2 cell culture incubator and incubated for two more days. On day 8, same procedure was repeated again and fresh medium containing the testing compounds or reference compounds were added and incubated for an additional 2 days. On day 10, 20 μl of MTT reagent (5 mg/ml) was added to each well of the cell culture plate and incubated for 4 h. The cell culture media was removed and 100 μl DMSO was added to each well. The 96-well cell culture plates were shaked horizontally for 10 min and readed in a Varioskan Flash plate reader (Thermo Fisher Scientific) at 520 and 690 nm. The obtained 520 nm absorbance readings substracting corresponding 690 nm reading were analyzed using a commercial graphic software (GraphPad Prism 5) and plotted against the Log scale of the compound concentrations.
In assay [3] the test system is Human breast cancer cell line T47D. The experiment in a line: Potentiation of MMS induced apoptosis, cell based caspase-3 activity assay.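 Also: Caspase-3 activity in cell lysates measured by fluorescence (RFU), EC50 fitted from sigmoidal curve of signal versus log compound concentration in presence of MMS.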 As to conditions: read-out: Compounds potentiate the apoptosis inducing activity of MMS (EC50).
Description: Human breast cancer cell line T47D (Nanjing KeyGEN Biotech. CO., LTD.) was used to determine the potentiation effect of PARP-1 inhibitors on the apoptosis inducing activity of DNA damaging anticancer drugs such as MMS. Intracellular caspase-3 activity was used to measure cell apoptosis. Briefly, T47D cells were grown in DMEM/F12 cell culture medium (Hyclone) supplemented with 0.2 U/ml insulin (Genview) and 10% FBS (Hyclone). A day before experiment, 20000 of T47D cells were seeded to each well of a 96-well cell culture plate and maintained at 37° C. and 5% CO2 in a cell culture incubator overnight. On the day of experiment, cell culture medium was removed. […] The serial dilutions of the compounds to be tested and the reference compounds were made in a 1:3 and 1:10 fashion in DMSO. The 10-fold compound solutions were made by mixing 10 μl DMSO serial dilution solutions with 90 μl fresh growth medium. Twenty four hours later, the cells in the 96-well plates were centrifuged at 1000 g for 5 min and the supernatants were removed. 50 μl lysis buffer (10 mM Tris, pH 7.5, 0.1M NaCl, 1 mM EDTA, 0.01% Triton X-100) was added to each well and the plates were shaked horizontally for 30 min at 4° C. After centrifugation at 1000 g at 4° C. for 10 min, 20 μl of supernatant was transferred from each well to a corresponding well in a 384-well black plate. […] The plates were shaked to uniformly mix the wells and incubated at 37° C. for 3 h. […] The caspase-3 activity induced by the compounds was expressed as a relative fluorescence unit (RFU). The obtained fluorescence readings were analyzed using a commercial graphic software (GraphPad Prism 5) and plotted against the Log value of the compound concentrations. The EC50 values were obtained by fitting the data points with the equation of Y (fluorescence reading)=minimal fluorescence reading+(maximal fluorescence reading−minimal fluorescence reading)/(1+10̂(LogEC50−LogC)), where C is the concentration of the testing compound. The EC50 values were obtained by fitting the data points with S-shaped dose response curve equation (GraphPad Software, Inc).
[4] abbreviates: SW620 cells, medium containing 1.5 μg/ml MMS, 5 days (120 hours), MTT.
Setting [5] is: T47D cells, 100 nM MMS, 24 hours, intracellular caspase-3 activity.

Like-named read-outs stand apart in the source and are kept apart here. A value given as a limit tells only on which side of the number the result lay.

As usually defined, the IC50 is the concentration that inhibits the measured activity by half. As usually defined, the EC50 is the midpoint of the concentration-response curve. Consider `O=C(c1cc(Cc2n[nH]c(=O)c3ccccc23)ccc1F)N1CCN(C(=O)C2CC2)CC1` [AZD2281, olaparib, reference compound], for which the IC50 in assay [1] (Homo sapiens, SW-620, 120 h) turned out to be 46 nM; in assay [2] it was 1070 nM. Further, the EC50 in assay [3] (Homo sapiens, T47D, 24 h) came to 14 nM.

On to `O=C(c1cccc(Cn2c3c(c(=O)[nH]c2=O)CCCC3)c1)N1CCN(c2ncccn2)CC1` [Example 5, 1-(3-(4-(Pyrimidin-2-yl)piperazine-1-carbonyl)benzyl)-5,6,7,8-tetrahydroquinazoline-2,4(1H,3H)-dione], for which the IC50 in assay [1] (Homo sapiens, SW-620, 120 h) stood at 15 nM; in assay [2], 22 nM. Moreover, the EC50 in assay [3] (Homo sapiens, T47D, 24 h) came to 3.5 nM.

For the compound `O=C(c1cccc(Cn2c3c(c(=O)[nH]c2=O)CCCC3)c1)N1CCN(C(=O)C2CC2)CC1` [Example 6, 1-(3-(4-(Cyclopropylcarbonyl)piperazine-1-carbonyl)benzyl)-5,6,7,8-tetrahydroquinazoline-2,4(1H,3H)-dione], the 50% inhibitory concentration (IC50) in assay [1] (Homo sapiens, SW-620, 120 h) came to 120 nM. For the same compound, the EC50 in assay [3] (Homo sapiens, T47D, 24 h) was over 1000 nM.

As for `O=C(c1cccc(Cn2c3c(c(=O)[nH]c2=O)CCCC3)c1)N1CCN(C(=O)c2cccs2)CC1` [Example 7, 1-(3-(4-(Thiophene-2-carbonyl)piperazine-1-carbonyl)benzyl)-5,6,7,8-tetrahydroquinazoline-2,4(1H,3H)-dione], the IC50 in assay [1] (Homo sapiens, SW-620, 120 h) is 21 nM. In addition, the EC50 in assay [3] (Homo sapiens, T47D, 24 h) turned out to be 62 nM.

On to `O=C(c1cccc(Cn2c3c(c(=O)[nH]c2=O)CCCC3)c1)N1CCN(c2nccs2)CC1` [Example 8, 1-(3-(4-(Thiazol-2-yl)piperazine-1-carbonyl)benzyl)-5,6,7,8-tetrahydroquinazoline-2,4(1H,3H)-dione], for which, in assay [1] (Homo sapiens, SW-620, 120 h), the IC50 turned out to be 11 nM. Besides, in assay [3] (Homo sapiens, T47D, 24 h), the EC50 turned out to be 20 nM.

Turning to `O=C(c1cccc(Cn2c3c(c(=O)[nH]c2=O)CCCC3)c1)N1CCN(C(=O)C2CCCC2)CC1` [Example 9, 1-(3-(4-(Cyclopentylcarbonyl)piperazine-1-carbonyl)benzyl)-5,6,7,8-tetrahydroquinazoline-2,4(1H,3H)-dione], the half-inhibitory concentration (IC50) in assay [1] (Homo sapiens, SW-620, 120 h) stood at 12 nM; in assay [2], 107 nM. In addition, the EC50 in assay [3] (Homo sapiens, T47D, 24 h) amounted to 91 nM.

With `O=C(c1ccccc1)N1CCN(C(=O)c2cccc(Cn3c4c(c(=O)[nH]c3=O)CCCC4)c2)CC1` [Example 10, 1-(3-(4-Benzoylpiperazine-1-carbonyl)benzyl)-5,6,7,8-tetrahydroquinazoline-2,4(1H,3H)-dione], the IC50 in assay [1] (Homo sapiens, SW-620, 120 h) came out at 36 nM. Also, the EC50 in assay [3] (Homo sapiens, T47D, 24 h) worked out at 325 nM.

With `O=C(c1cccc(Cn2c3c(c(=O)[nH]c2=O)CCCC3)c1)N1CCN(C(=O)C2CCCCC2)CC1` [Example 12, 1-(3-(4-(Cyclohexylcarbonyl)piperazine-1-carbonyl)benzyl)-5,6,7,8-tetrahydroquinazoline-2,4(1H,3H)-dione], in assay [1] (Homo sapiens, SW-620, 120 h), the IC50 amounted to 9.7 nM. Also, in assay [3] (Homo sapiens, T47D, 24 h), the EC50 was 62 nM.

Consider `O=C(c1cccc(Cn2c3c(c(=O)[nH]c2=O)CCCC3)c1)N1CCN(C(=O)c2ccco2)CC1` [Example 13, 1-(3-(4-(Furan-2-carbonyl)piperazine-1-carbonyl)benzyl)-5,6,7,8-tetrahydroquinazoline-2,4(1H,3H)-dione], for which the IC50 in assay [1] (Homo sapiens, SW-620, 120 h) stood at 33 nM. Moreover, the EC50 in assay [3] (Homo sapiens, T47D, 24 h) stood at 374 nM.

As for `O=C(c1cccc(Cn2c3c(c(=O)[nH]c2=O)CCCC3)c1)N1CCN(C(=O)C2CCC2)CC1` [Example 14, 1-(3-(4-(Cyclobutylcarbonyl)piperazine-1-carbonyl)benzyl)-5,6,7,8-tetrahydroquinazoline-2,4(1H,3H)-dione], the IC50 in assay [1] (Homo sapiens, SW-620, 120 h) stood at 22 nM. Moreover, the EC50 in assay [3] (Homo sapiens, T47D, 24 h) came to 35 nM.

`O=C(c1ccsc1)N1CCN(C(=O)c2cccc(Cn3c4c(c(=O)[nH]c3=O)CCCC4)c2)CC1` [Example 15, 1-(3-(4-(Thiophene-3-carbonyl)piperazine-1-carbonyl)benzyl)-5,6,7,8-tetrahydroquinazoline-2,4(1H,3H)-dione]: in assay [1] (Homo sapiens, SW-620, 120 h), the IC50 is 31 nM. Moreover, the EC50 in assay [3] (Homo sapiens, T47D, 24 h) stood at 72 nM.

For the compound `O=C(c1cccc(Cn2c3c(c(=O)[nH]c2=O)CCCC3)c1)N1CCN(c2cnccn2)CC1` [Example 16, 1-(3-(4-(Pyrazin-2-yl)piperazine-1-carbonyl)benzyl)-5,6,7,8-tetrahydroquinazoline-2,4(1H,3H)-dione], the IC50 in assay [1] (Homo sapiens, SW-620, 120 h) was 13 nM. The EC50 in assay [3] (Homo sapiens, T47D, 24 h) was found to be 43 nM.

In the case of `O=C(c1cc(Cn2c3c(c(=O)[nH]c2=O)CCCC3)ccc1F)N1CCN(C(=O)C2CC2)CC1` [Example 19, 1-(4-Fluoro-3-(4-(cyclopropylcarbonyl)piperazine-1-carbonyl)benzyl)-5,6,7,8-tetrahydroquinazoline-2,4(1H,3H)-dione], the IC50 in assay [1] (Homo sapiens, SW-620, 120 h) was 25 nM. Besides, the EC50 in assay [3] (Homo sapiens, T47D, 24 h) came to 324 nM.

With `CCS(=O)(=O)N1CCN(C(=O)c2cc(Cn3c4c(c(=O)[nH]c3=O)CCCC4)ccc2F)CC1` [Example 29, 1-(4-Fluoro-3-(4-ethylsulfonylpiperazine-1-carbonyl)benzyl)-5,6,7,8-tetrahydroquinazoline-2,4(1H,3H)-dione], in assay [1] (Homo sapiens, SW-620, 120 h), the IC50 was 18 nM. Besides, the EC50 in assay [3] (Homo sapiens, T47D, 24 h) worked out at 138 nM.

In the case of `CCN1CCN(C(=O)c2cc(Cn3c4c(c(=O)[nH]c3=O)CCCC4)ccc2F)CC1` [Example 31, 1-(4-Fluoro-3-(4-ethylpiperazine-1-carbonyl)benzyl)-5,6,7,8-tetrahydroquinazoline-2,4(1H,3H)-dione], the IC50 in assay [1] (Homo sapiens, SW-620, 120 h) is 31 nM. Further, in assay [3] (Homo sapiens, T47D, 24 h), the EC50 was 295 nM.

As to `O=C(c1ccc(F)cc1)N1CCN(C(=O)c2cc(Cn3c4c(c(=O)[nH]c3=O)CCCC4)ccc2F)CC1` [Example 32, 1-(4-Fluoro-3-(4-(4-fluorobenzoyl)piperazine-1-carbonyl)benzyl)-5,6,7,8-tetrahydroquinazoline-2,4(1H,3H)-dione], in assay [1] (Homo sapiens, SW-620, 120 h), the IC50 is 6.3 nM. In addition, in assay [3] (Homo sapiens, T47D, 24 h), the EC50 came to 27 nM.

Take `CC(=O)N1CCN(C(=O)c2cc(Cn3c4c(c(=O)[nH]c3=O)CCCC4)ccc2F)CC1` [Example 34, 1-(4-Fluoro-3-(4-acetylpiperazine-1-carbonyl)benzyl)-5,6,7,8-tetrahydroquinazoline-2,4(1H,3H)-dione]: the IC50 in assay [1] (Homo sapiens, SW-620, 120 h) turned out to be 42 nM. Besides, the EC50 in assay [3] (Homo sapiens, T47D, 24 h) was 402 nM.

Consider `COc1ccc(C(=O)N2CCN(C(=O)c3cc(Cn4c5c(c(=O)[nH]c4=O)CCCC5)ccc3F)CC2)cc1` [Example 37, 1-(4-Fluoro-3-(4-(4-methoxybenzoyl)piperazine-1-carbonyl)benzyl)-5,6,7,8-tetrahydroquinazoline-2,4(1H,3H)-dione], for which, in assay [1] (Homo sapiens, SW-620, 120 h), the IC50 worked out at 14 nM. Moreover, the EC50 in assay [3] (Homo sapiens, T47D, 24 h) was 48 nM.

As to `O=C(c1cccc(Cn2c3c(c(=O)[nH]c2=O)CCC3)c1)N1CCN(c2ncccn2)CC1` [Example 45], the IC50 in assay [1] (setting [4]) was 138 nM. Besides, in assay [3] (setting [5]), the 50% effective concentration (EC50) came out at 402 nM.

In the case of `O=C(c1ccccc1)N1CCN(C(=O)c2ccc(F)c(Cn3c4c(c(=O)[nH]c3=O)CCCC4)c2)CC1` [Example 48, 1-(6-Fluoro-3-(4-benzoylpiperazine-1-carbonyl)benzyl)-5,6,7,8-tetrahydroquinazoline-2,4(1H,3H)-dione], the IC50 in assay [1] (Homo sapiens, SW-620, 120 h) was 13 nM. Moreover, the EC50 in assay [3] (Homo sapiens, T47D, 24 h) came out at 26 nM.

With `O=C(c1ccc(F)c(Cn2c3c(c(=O)[nH]c2=O)CCCC3)c1)N1CCN(C(=O)c2ccco2)CC1` [Example 52, 1-(6-Fluoro-3-(4-(furan-2-carbonyl)piperazine-1-carbonyl)benzyl)-5,6,7,8-tetrahydroquinazoline-2,4(1H,3H)-dione], the IC50 in assay [1] (Homo sapiens, SW-620, 120 h) was 16 nM. Also, the EC50 in assay [3] (Homo sapiens, T47D, 24 h) is 24 nM.

With `O=C(c1cc(Cn2c3c(c(=O)[nH]c2=O)CCCC3)ccc1F)N1CCC(c2ccccc2)CC1` [Example 54, 1-(4-Fluoro-3-(4-phenylpiperidine-1-carbonyl)benzyl)-5,6,7,8-tetrahydroquinazoline-2,4(1H,3H)-dione], the IC50 in assay [1] (Homo sapiens, SW-620, 120 h) was found to be 107 nM. Besides, the EC50 in assay [3] (Homo sapiens, T47D, 24 h) worked out at 532 nM.

On to `O=C(c1ccc(Cn2c3c(c(=O)[nH]c2=O)CCCC3)cc1)N1CCN(c2ncccn2)CC1` [Example 55, 1-(4-(4-(Pyrimidin-2-yl)piperazine-1-carbonyl)benzyl)-5,6,7,8-tetrahydroquinazoline-2,4(1H,3H)-dione], for which, in assay [1] (Homo sapiens, SW-620, 120 h), the IC50 was over 10000 nM. Further, in assay [3] (Homo sapiens, T47D, 24 h), the EC50 is over 10000 nM.

For `O=C(c1ccccc1Cn1c2c(c(=O)[nH]c1=O)CCCC2)N1CCN(c2ncccn2)CC1` [Example 56, 1-(2-(4-(Pyrimidin-2-yl)piperazine-1-carbonyl)benzyl)-5,6,7,8-tetrahydroquinazoline-2,4(1H,3H)-dione], the IC50 in assay [1] (Homo sapiens, SW-620, 120 h) was over 10000 nM. The EC50 in assay [3] (Homo sapiens, T47D, 24 h) was over 10000 nM.

For `CC1CCc2c(c(=O)[nH]c(=O)n2Cc2ccc(F)c(C(=O)N3CCN(c4ncccn4)CC3)c2)C1` (stereo not drawn) [Example 57, 1-(4-Fluoro-3-(4-(pyrimidin-2-yl)piperazine-1-carbonyl)benzyl)-6-methyl-5,6,7,8-tetrahydroquinazoline-2,4(1H,3H)-dione], the IC50 in assay [1] (Homo sapiens, SW-620, 120 h) turned out to be 221 nM. In addition, in assay [3] (Homo sapiens, T47D, 24 h), the half-maximal effective concentration (EC50) came out at 429 nM.

Turning to `CC1CCCc2c1c(=O)[nH]c(=O)n2Cc1ccc(F)c(C(=O)N2CCN(c3ccccn3)CC2)c1` (stereo not drawn) [Example 58, 1-(4-Fluoro-3-(4-(pyridin-2-yl)piperazine-1-carbonyl)benzyl)-5-methyl-5,6,7,8-tetrahydroquinazoline-2,4(1H,3H)-dione], in assay [1] (setting [4]), the IC50 worked out at 82 nM. Moreover, the EC50 in assay [3] (setting [5]) was 350 nM.

In the case of `O=C(c1cc(Cn2c3c(c(=O)[nH]c2=O)CCCCC3)ccc1F)N1CCN(c2ncccn2)CC1` [Example 59, 1-(4-Fluoro-3-(4-(pyrimidin-2-yl)piperazine-1-carbonyl)benzyl)-6,7,8,9-tetrahydro-1H-cyclohepta[d]pyrimidine-2,4(3H,5H)-dione], the IC50 in assay [1] (Homo sapiens, SW-620, 120 h) turned out to be 42 nM. Further, in assay [3] (Homo sapiens, T47D, 24 h), the EC50 is 309 nM.
